Source: article PMC6099883 (Proceedings of the National Academy of Sciences of the …, 2018)

Target: T1, OsGID1 with SLR1 (Oryza sativa, UniProt Q6L545)
T1 sequence (Q6L545 1-354): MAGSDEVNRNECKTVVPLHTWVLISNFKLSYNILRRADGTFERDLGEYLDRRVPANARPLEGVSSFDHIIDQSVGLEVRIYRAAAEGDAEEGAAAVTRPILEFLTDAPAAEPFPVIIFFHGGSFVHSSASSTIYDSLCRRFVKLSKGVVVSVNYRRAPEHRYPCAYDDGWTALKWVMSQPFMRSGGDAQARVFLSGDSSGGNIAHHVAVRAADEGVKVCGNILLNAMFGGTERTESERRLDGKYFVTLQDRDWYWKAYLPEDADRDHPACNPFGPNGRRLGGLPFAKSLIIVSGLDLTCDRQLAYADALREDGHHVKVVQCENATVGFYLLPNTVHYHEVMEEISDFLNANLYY
T1 sequence (Q7G7J6 1-625 partner): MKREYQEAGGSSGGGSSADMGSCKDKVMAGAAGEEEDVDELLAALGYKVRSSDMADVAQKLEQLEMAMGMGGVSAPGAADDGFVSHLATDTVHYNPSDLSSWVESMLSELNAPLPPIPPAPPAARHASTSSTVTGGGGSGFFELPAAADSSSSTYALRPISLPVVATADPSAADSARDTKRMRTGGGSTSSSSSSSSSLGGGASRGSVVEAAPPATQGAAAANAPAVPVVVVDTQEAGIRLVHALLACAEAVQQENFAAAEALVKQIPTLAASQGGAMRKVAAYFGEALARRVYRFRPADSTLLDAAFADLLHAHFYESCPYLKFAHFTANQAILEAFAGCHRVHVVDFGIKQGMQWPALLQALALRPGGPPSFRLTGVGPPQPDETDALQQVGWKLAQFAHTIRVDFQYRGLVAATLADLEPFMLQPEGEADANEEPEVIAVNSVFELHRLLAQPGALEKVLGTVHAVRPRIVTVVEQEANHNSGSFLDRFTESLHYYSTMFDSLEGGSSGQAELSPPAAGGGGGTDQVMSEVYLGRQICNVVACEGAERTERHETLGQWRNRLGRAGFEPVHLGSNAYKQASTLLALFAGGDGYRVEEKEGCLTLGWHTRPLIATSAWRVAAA
Test: SPR
Type: binding

| Kd | SMILES |
| --- | --- |
| 305 nM | C=C1C[C@]23C[C@@]1(O)CC[C@H]2[C@@]12CC[C@H](O)[C@@](C)(C(=O)O1)[C@H]2[C@@H]3C(=O)O [GA1] |
| 296 nM | C=C1C[C@]23C[C@@]1(O)CC[C@H]2[C@@]12C=C[C@H](O)[C@@](C)(C(=O)O1)[C@H]2[C@@H]3C(=O)O [GA3] |
